Measurements from PubChem BioAssay (NCI).
Values joined by “and” are separate entries in the source; they are usually repeats but may differ in a detail not shown here. Identical values can stand only once.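 1) Cells in 96-well plates. 2) Compound, 48 h, 5 concentrations. 3) Linear interpolation between surrounding doses. 4) Unreached endpoint = highest concentration. GI50 = concentration required for 50% inhibition of growth. At the TGI there is no net growth.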

Assays:
Test in all cases: growth of human tumour cells (NCI), 48 h
[1] = test system: M14 melanoma
[2] = test system: ACHN renal
[3] = test system: SN12C renal
[4] = test system: RXF 393 renal
[5] = test system: SF-539 CNS
[6] = test system: UO-31 renal
[7] = test system: A549 NSCLC
[8] = test system: SW-620 colon
[9] = test system: HT29 colon
[10] = test system: K-562 leukemia

SMILES | TGI [1] [µM] | TGI [2] [µM] | TGI [3] [µM] | TGI [4] | TGI [5] | TGI [6] [µM] | TGI [7] [µM] | TGI [8] [µM] | TGI [9] | TGI [10] [µM] | GI50 [1] | GI50 [2] | GI50 [3] | GI50 [4] [µM] | GI50 [5] | GI50 [6] | GI50 [7] | GI50 [8] [µM] | GI50 [9] | GI50 [10]
O=C(O)C1C2C=CC(O2)C1C(=O)Nc1ncccn1 (stereo not drawn) | > 100 | > 100 | > 100 | > 100 µM | > 100 µM | > 100 | > 100 | > 100 | > 100 µM | > 100 |  |  |  |  |  |  |  |  |  | 
COc1ccc2cc(-c3c(-c4ccncc4)nc(-c4ccc(S(C)=O)cc4C)n3C)ccc2c1 (stereo not drawn) | > 25 | > 25 | > 25 | > 25 µM | > 25 µM | > 25 | > 25 | > 25 | > 25 µM | > 25 | > 21.6 µM | 13.2 µM | 15.7 µM | > 24.2 | > 25 µM | 6.37 µM | 15.5 µM | > 25 | 10.6 µM | 13.4 µM
COc1cc([C@H]2c3[nH]c4ccccc4c3C[C@H]3COC(=O)N32)cc(OC)c1O | > 100 | 28.5 | 59.7 | 1.51 µM | 2.86 µM | 29.7 | 29.5 | > 70 | 25.3 µM | > 90.3 |  |  |  |  |  |  |  |  |  | 
C/C(=N/O)c1ccc2c(c1)C(=NO)c1cc(/C(C)=N/O)ccc1-2 | 31.2 | 20.8 | 33.6 | 48.8 µM | 31.4 µM | 28.3 | 68.6 | 34.8 | 30 µM | > 100 |  |  |  |  |  |  |  |  |  | 
C=CC1=CC(C)C[C@]1(O)C(=O)OC (stereo partly drawn) |  |  |  |  | > 100 µM |  |  |  |  |  | > 100 µM | > 100 µM | > 100 µM | > 100 |  | > 100 µM | > 100 µM | < 0.01 | > 100 µM | > 100 µM
Cn1cnc([N+](=O)[O-])c1Sc1nc(N)nc2nc[nH]c12 | > 100 | > 100 | > 100 | > 91.7 µM | > 100 µM | > 100 | > 100 | > 100 | > 100 µM | > 100 | 1.28 µM | 10 µM | 6.7 µM | 5.09 | 3.15 µM | 4.71 µM | 13.1 µM | 7.43 | 5.19 µM | 4.2 µM
COc1ccc(-c2nc3c(c(=O)n2C(C)=O)C(c2ccc(Cl)cc2)c2sc4c(Cl)cccc4c2O3)cc1 (stereo not drawn) | 0.973 | 4.51 | 2.23 | 0.675 µM | 0.84 µM | 2.39 | 2.2 | 1.75 | 1.09 µM | 2.7 | 0.239 µM | 0.897 µM | 0.64 µM | 0.235 | 0.259 µM | 0.329 µM | 0.625 µM | 0.376 | 0.325 µM | 0.26 µM
Cn1cc(CO)c2ccccc21 | > 100 | > 100 | > 100 | > 100 µM | > 100 µM | > 100 | > 100 | 91.1 | > 100 µM | > 100 | 31.6 µM | > 100 µM | 50.9 µM | 49.7 | 40.6 µM | 4.28 µM | 64.3 µM | 19.1 | 30.2 µM | 17.5 µM
CC(=O)OCCC(O[Si](c1ccccc1)(c1ccccc1)C(C)(C)C)C(C)(C)O (stereo not drawn) | > 100 | > 100 | 34.2 | 36.6 µM | 63.8 µM | 68.7 | > 100 | > 100 | 66.9 µM | > 100 |  |  |  |  |  |  |  |  |  | 
CC(=O)[CH-]C(=O)c1ccccc1.CC(=O)[CH-]C(=O)c1ccccc1.[CH2-]CCC.[CH2-]CCC.[Sn+4] | 2.62 | 2.86 | 2.68 | 0.784 µM | 2.77 µM | 2.66 | 4.13 | 0.964 | 3.39 µM | 10.3 | 1.16 µM | 1.49 µM | 1.14 µM | 0.258 | 1.36 µM | 1.37 µM | 1.93 µM | 0.283 | 1.73 µM | 0.331 µM
COc1ccc(/C=C(/C(=O)n2cnnn2)c2cc(OC)c(OC)c(OC)c2)cc1 | > 100 | > 100 | > 100 | > 100 µM | 19.9 µM | > 100 | > 100 | > 100 | > 100 µM | > 100 | 2.58 µM | 6.87 µM | 5.15 µM | 3.91 | 3.2 µM | 5.41 µM | 3.97 µM | 3.78 | 3.42 µM | 2.86 µM
CC[C@H](C)[C@H](NC(=O)[C@H]1CCCCN1C)C(=O)N(C)[C@H](C[C@@H](OC(C)=O)c1nc(C(=O)N[C@@H](Cc2ccccc2)C[C@H](C)C(=O)OC)cs1)C(C)C | < 0.0025 | > 25 | > 25 | 22.7 µM | 0.00437 µM and < 0.0025 µM | > 25 | > 25 | > 25 | 0.0137 µM and < 0.0025 µM | > 25 | 0.000331 µM and < 0.0025 µM | 0.000773 µM and 0.0025 µM | 0.00076 µM and 0.0025 µM | 0.0025 | 0.000482 µM and < 0.0025 µM | 0.0032 µM and 0.0025 µM | 0.000523 µM and 0.0025 µM |  | 0.000251 µM and < 0.0025 µM | 0.000278 µM and 0.0025 µM
Cc1n(Cc2ccc3ccccc3c2)c(Cl)c(Cl)[n+]1Cc1ccc2ccccc2c1 | 3.99 | 8.07 | 3.03 | 3.16 µM | 3.08 µM | 8.24 | 22 | 3.06 | 4.12 µM | 7.3 | 1.79 µM | 2.59 µM | 1.62 µM | 1.66 | 1.62 µM | 1.71 µM | 5.07 µM | 1.48 | 1.76 µM | 1.9 µM
O=c1[nH]c2cc(Cl)c(Cl)cc2n2cc3ccccc3c12 | 39.7 | 28.9 | 29.4 | 31.2 µM | 39.5 µM | 32.8 | 34.5 | 29.2 | > 100 µM |  | 23 µM | 15.5 µM | 15.7 µM | 17.4 | 19.1 µM | 17.9 µM | 18.9 µM | 15.8 | 29 µM | 
CN(C)C/C=C/C(=O)Nc1ccc(C(=O)N2CCC[C@@H](Nc3ncc(Cl)c(-c4c[nH]c5ccccc45)n3)C2)cc1 | 2.16 | 12.7 | 9.29 | 0.561 µM | 0.65 µM | 23 | 11 | 5.74 | 4.2 µM | > 100 | 0.359 µM | 3.41 µM | 0.21 µM | 0.115 | 0.176 µM | 9.84 µM | 0.581 µM | 0.191 | 0.285 µM | 0.0863 µM
CCC(=O)c1cc([N+](=O)[O-])c(Br)s1 | 10.6 | 3.26 | 24.1 | 3.31 µM | 16.8 µM | 2.98 | 19.6 | 3.19 | 3.29 µM | 6.82 | 3.13 µM | 1.71 µM | 8.3 µM | 1.88 | 3.9 µM | 1.59 µM | 5.27 µM | 1.65 | 1.52 µM | 2.16 µM
CN(C)C(=O)SC1=C(c2c(Cl)cccc2Cl)C(=O)c2ccccc21 | 7.79 | 5.03 | 17.7 | 8.59 µM | 22.8 µM | 6.51 | > 55.7 | 5.01 | 11.9 µM | 14.8 | 3.03 µM | 2.23 µM | 6.18 µM | 4.18 | 9.01 µM | 2.18 µM | 24.8 µM | 2.17 | 3.47 µM | 2.98 µM
Cc1cc([N+](=O)[O-])c(S(=O)(=O)c2ccccc2)c([N+](=O)[O-])c1 | 17.6 | 33.4 | 18.3 | 4.8 µM | 32.6 µM | 31 | 41.3 | 10.1 | 19.1 µM | > 100 |  |  |  |  |  |  |  |  |  | 
Cc1ccccc1NC(=O)C(=O)CC(=O)c1ccc([N+](=O)[O-])cc1 | > 100 | > 100 | > 100 | > 100 µM | > 100 µM | > 100 | > 100 | > 100 | > 100 µM |  |  |  |  |  |  |  |  |  |  | 
CN(C)CCCC1(c2ccc(F)cc2)OCc2cc(-c3cncc4ccccc34)ccc21 (stereo not drawn) | 3.77 | 12.5 | 17 | 10.1 µM | 3.29 µM | 4.41 | 16.2 | 11.5 | 8.23 µM | 5.17 | 1.82 µM | 3.34 µM | 4.05 µM | 2.51 | 1.76 µM | 1.53 µM | 3.92 µM | 3.08 | 2.36 µM | 2.02 µM
COc1ccc(-c2cc(/C=C/C(=O)c3cc(OC)c(OC)c(OC)c3)[nH]n2)cc1OC | 3.69 | 2.82 | 3.83 | 3.16 µM | 1.48 µM | 2.59 | 9.34 | 4.16 | 2.73 µM | 9.71 | 1.8 µM | 1.45 µM | 1.77 µM | 1.53 | 0.309 µM | 1.27 µM | 2.39 µM | 1.5 | 1.3 µM | 0.731 µM
COC(=O)c1cc2c3c(ccc2[nH]1)N(C(=O)c1cc2c4c(ccc2[nH]1)N(C(=O)c1cc2c5c(ccc2[nH]1)N(C(N)=O)CC5)CC4)CC3 | > 21.3 | > 27.8 | 49.4 | 12.5 µM | > 34.8 µM | 8.47 | > 100 | > 100 | > 100 µM | > 100 |  |  |  |  |  |  |  |  |  | 
O=C(Nc1ccccc1O)c1ccc(CNC(=O)c2ccsc2Nc2ccnc(C(F)(F)F)c2)cc1 | 7.03 | 10.3 | 79.3 | 4.82 µM | 18.1 µM | 4.34 | 12.5 | 10.5 | 12.6 µM | > 100 | 2.61 µM | 2.6 µM | 4.13 µM | 1.93 | 1.95 µM | 1.32 µM | 3.21 µM | 2.5 | 3.05 µM | 1.62 µM
O=C(CCN1CCCC1)Nc1ccc2c(Nc3ccccc3)c3ccccc3nc2c1 | 2.69 | 1.51 | 1.81 | 2.65 µM | 2.44 µM | 2.38 | 3.22 | 1.87 | 3.14 µM | 1.2 | 1.13 µM | 0.243 µM | 0.306 µM | 0.981 | 1.14 µM | 0.808 µM | 0.113 µM | 0.232 | 0.521 µM | 0.235 µM
Cc1ccc(-n2c3c(c4c(CN5CCOCC5)c(O)ccc42)CCc2ccccc2C3=O)cc1 | > 100 | > 100 | > 100 | > 100 µM | > 100 µM | > 100 | > 100 | > 100 | 0.241 µM | > 100 | > 100 µM | > 100 µM | 46.9 µM | 25.9 | > 100 µM | > 100 µM | 82.3 µM | > 100 |  | 25.8 µM
NC(=O)c1c[se]c(C2OC(COP(=O)(O)CP(=O)(O)OCC3OC(n4cnc5c(N)ncnc54)C(O)C3O)C(O)C2O)n1 (stereo not drawn) | > 100 | > 100 | > 100 | > 100 µM | > 100 µM | > 100 | > 100 | > 100 | > 100 µM | > 100 |  |  |  |  |  |  |  |  |  | 
CC(C)(C)c1cc(CCC(=O)Nc2ccc(Cl)cc2Cl)nc(N)n1 | > 100 | > 100 | > 100 | > 100 µM | > 100 µM | > 100 | > 100 | > 100 | > 100 µM | > 100 |  |  |  |  |  |  |  |  |  | 
Cc1cc(NC(=O)NC(=O)c2ccccc2N(C)C)ccc1Oc1ncc(Br)cn1 | > 63.1 | > 68.1 | > 100 | 0.698 µM and 6.37 µM | 0.548 µM and 1.03 µM | > 63.1 | > 63.1 | > 71.1 | 15.2 µM | 27.3 | 0.428 µM | 0.404 µM | 0.578 µM | 0.242 | 0.208 µM | 0.584 µM | 0.584 µM |  |  | 0.21 µM
